From US11203591B2, “Substituted 6-azabenzimidazole compounds” (Gilead Sciences, Inc., priority 2018, dated 2021)

Biological target: human HPK1 (MAP4K1) (Homo sapiens (Human), UniProt Q92918)
Experiment: HPK1 IC50 Assay (TR-FRET peptide phosphorylation)
Format: biochemical
In short: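 Pre-activated, dually phosphorylated baculovirus-expressed HPK1 kinase domain (0.15 nM) preincubated 15 min with compound, then reacted 3 h at 25° C with 10 μM ATP and 1 μM STK S1 peptide in BES pH 7.0 buffer. Phosphopeptide read by TR-FRET (665/620 nm); four-parameter fit, geometric-mean IC50.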

[1] = recombinant HPK1 kinase domain 0.15 nM, 10 μM ATP, 1 μM STK S1 peptide, geometric mean of multiple experiments
[2] = 0.15 nM HPK1, 10 μM ATP, 1 μM STK S1 peptide substrate, geometric mean

Sequence of human HPK1 (MAP4K1) (Q92918 17-274): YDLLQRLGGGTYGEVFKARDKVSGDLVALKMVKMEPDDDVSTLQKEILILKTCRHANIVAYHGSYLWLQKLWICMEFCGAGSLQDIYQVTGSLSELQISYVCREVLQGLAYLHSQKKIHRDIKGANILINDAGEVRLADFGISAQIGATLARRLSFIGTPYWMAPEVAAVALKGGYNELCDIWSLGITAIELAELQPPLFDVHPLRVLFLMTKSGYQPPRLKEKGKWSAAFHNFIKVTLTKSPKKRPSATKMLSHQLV

Compound: Cc1c(C(=O)NC2CC2)cc(Nc2nc(-c3cnc4c(c3)N([C@H]3C[C@@](C)(N5CCCCC5)C3)C(=O)C4(C)C)cc3ncn(C(C)C)c23)c(F)c1F [Example 221, N-Cyclopropyl-5-((6-(3,3-dimethyl-1-((1s,3s)-3-methyl-3-(piperidin-1-yl)cyclobutyl)-2-oxo-2,3-dihydro-1H-pyrrolo[3,2-b]pyridin-6-yl)-3-isopropyl-3H-imidazo[4,5-c]pyridin-4-yl)amino)-3,4-difluoro-2-methylbenzamide]
- IC50 [1]: 0.07 nM

Compound: CCC(=O)N1CCC2(CC1)C(=O)N([C@H]1C[C@@H](N3CCCCC3)C1)c1cc(-c3cc4ncn(C(C)C)c4c(Nc4cc(C(=O)NC(C)C)c(C)cc4F)n3)ccc12 [Example 53]
- IC50 [1]: 0.08 nM

Compound: CNC(=O)c1cc(Nc2nc(-c3ccc4c(c3)N([C@H]3C[C@@H](N5CCCCC5)C3)C(=O)C43CCN(C(=O)C4(O)CC4)CC3)cc3ncn(C4CC4)c23)ccc1C [Example 84]
- IC50 [1]: 0.2 nM

Compound: CC[C@H](C)n1cnc2cc(-c3ccc4c(c3)N([C@H]3C[C@@H](N5CCC6(C5)CC6(F)F)C3)C(=O)C43CCN(C(C)=O)CC3)nc(Nc3ccc(C)c(C(=O)NC)c3)c21 (some centres unmarked) [Example 158]
- IC50 [1]: 0.2 nM

Compound: CNC(=O)c1cc(Nc2nc(-c3ccc4c(c3)N([C@H]3C[C@@H](N5CCCCC5)C3)C(=O)C4(C)C)cc3ncn(C(C)C)c23)c(F)cc1Cl [Example 118]
- IC50 [1]: 0.09 nM

Compound: Cc1cc(F)c(Nc2nc(-c3cnc4c(c3)N([C@H]3C[C@@](C)(N5CCOCC5)C3)C(=O)C4(C)C)cc3ncn(C(C)C)c23)cc1C(=O)NC1(C(F)F)CC1 [Example 215, N-(1-(Difluoromethyl)cyclopropyl)-5-((6-(3,3-dimethyl-1-((1s,3s)-3-methyl-3-morpholinocyclobutyl)-2-oxo-2,3-dihydro-1H-pyrrolo[3,2-b]pyridin-6-yl)-3-isopropyl-3H-imidazo[4,5-c]pyridin-4-yl)amino)-4-fluoro-2-methylbenzamide]
- IC50 [1]: 0.1 nM

Compound: CCNC(=O)c1cc(Nc2nc(-c3ccc4c(c3)N([C@H]3C[C@@H](N5CCCCC5)C3)C(=O)C43CCN(C(C)=O)CC3)cc3ncn(C(C)C)c23)c(F)cc1C [Example 74]
- IC50 [1]: 0.2 nM

Compound: CNC(=O)c1cc(Nc2nc(-c3ccc4c(c3)N([C@H]3C[C@@H](NCC(C)(C)O)C3)C(=O)C4(C)C)cc3ncn(C(C)C)c23)c(F)cc1C [Example 15]
- IC50 [1]: 0.1 nM

Compound: CNC(=O)c1cc(Nc2nc(-c3ccc4c(c3)N(C3CC(N5CC[C@H](C(F)F)C5)C3)C(=O)C4(C)C)cc3ncn(C(C)C)c23)ccc1C (some centres unmarked) [Example 104A, 5-((6-(1-((1s,3s)-3-(3-(difluoromethyl)pyrrolidin-1-yl)cyclobutyl)-3,3-dimethyl-2-oxoindolin-6-yl)-3-isopropyl-3H-imidazo[4,5-c]pyridin-4-yl)amino)-N,2-dimethylbenzamide]
- IC50 [1]: 0.2 nM

Compound: Cc1c(C(=O)NC2(C(F)F)CC2)cc(Nc2nc(-c3cnc4c(c3)N([C@H]3C[C@@](C)(N5CC6CCC6C5)C3)C(=O)C4(C)C)cc3ncn(C(C)C)c23)c(F)c1F (some centres unmarked) [Example 209, 5-((6-(1-((1s,3s)-3-(3-Azabicyclo[3.2.0]heptan-3-yl)-3-methylcyclobutyl)-3,3-dimethyl-2-oxo-2,3-dihydro-1H-pyrrolo[3,2-b]pyridin-6-yl)-3-isopropyl-3H-imidazo[4,5-c]pyridin-4-yl)amino)-N-(1-(difluoromethyl)cyclopropyl)-3,4-difluoro-2-methylbenzamide]
- IC50 [1]: 0.08 nM

Compound: Cc1cc(F)c(Nc2nc(-c3ccc4c(c3)N([C@H]3C[C@@H](N5CCCCC5)C3)C(=O)C4(C)C)cc3ncn(C(C)C)c23)cc1C(=O)NC1(C(F)F)CC1 [Example 65]
- IC50 [1]: 0.1 nM

Compound: CC(=O)N1CC2(C1)C(=O)N([C@H]1C[C@@H](N3CCCCC3)C1)c1cc(-c3cc4ncn(C(C)C)c4c(Nc4cc(C(=O)NC(C)C)c(C)cc4F)n3)ccc12 [Example 179]
- IC50 [1]: 1.1 nM

Compound: CC(C)n1cnc2cc(-c3ccc4c(c3)N([C@H]3C[C@@](C)(N5CCCCC5)C3)C(=O)C4(C)C)nc(Nc3cc(C(=O)NC4(CF)CC4)c(Cl)cc3F)c21 [Example 293, 2-chloro-5-((6-(3,3-dimethyl-1-((1s,3s)-3-methyl-3-(piperidin-1-yl)cyclobutyl)-2-oxoindolin-6-yl)-3-isopropyl-3H-imidazo[4,5-c]pyridin-4-yl)amino)-4-fluoro-N-(1-(fluoromethyl)cyclopropyl)benzamide]
- IC50 [2]: 0.05 nM

Compound: CC(C)n1cnc2cc(-c3cnc4c(c3)N([C@H]3C[C@@](C)(N5CCCCC5)C3)C(=O)C4(C)C)nc(Nc3cc(C(=O)NC4(C(F)F)CC4)ccc3F)c21 [Example 218, N-(1-(difluoromethyl)cyclopropyl)-3-((6-(3,3-dimethyl-1-((1s,3s)-3-methyl-3-(piperidin-1-yl)cyclobutyl)-2-oxo-2,3-dihydro-1H-pyrrolo[3,2-b]pyridin-6-yl)-3-isopropyl-3H-imidazo[4,5-c]pyridin-4-yl)amino)-4-fluorobenzamide]
- IC50 [1]: 0.06 nM

Compound: Cc1cc(F)c(Nc2nc(-c3ccc4c(c3)N([C@H]3C[C@@H](N5C[C@H]6CC[C@@H]5C6)C3)C(=O)C4(C)C)cc3ncn(C(C)C)c23)cc1C(=O)NC1(C(F)F)CC1 [Example 66]
- IC50 [1]: 0.09 nM

Compound: CC(C)n1cnc2cc(-c3cnc4c(c3)N([C@H]3C[C@@](C)(N5CC[C@@H](F)C5)C3)C(=O)C4(C)C)nc(Nc3cc(C(=O)NC4(C(F)F)CC4)c(Cl)c(F)c3F)c21 [Example 200, 2-Chloro-N-(1-(difluoromethyl)cyclopropyl)-3,4-difluoro-5-((6-(1-((1S,3s)-3-((R)-3-fluoropyrrolidin-1-yl)-3-methylcyclobutyl)-3,3-dimethyl-2-oxo-2,3-dihydro-1H-pyrrolo[3,2-b]pyridin-6-yl)-3-isopropyl-3H-imidazo[4,5-c]pyridin-4-yl)amino)benzamide]
- IC50 [1]: 0.1 nM

Compound: CNC(=O)c1cc(Nc2nc(-c3ccc4c(c3)N([C@H]3C[C@@H](N5C[C@H]6CC[C@@H]5C6)C3)C(=O)C43CCN(C(C)=O)CC3)cc3ncn(C4CC4)c23)ccc1C [Example 44]
- IC50 [1]: 0.2 nM

Compound: CNC(=O)c1cc(Nc2nc(-c3ccc4c(c3)N([C@H]3C[C@@H](N5CCC(C)(C)C5)C3)C(=O)C4(C)C)cc3ncn(C(C)C)c23)ccc1C [Example 3]
- IC50 [1]: 0.1 nM

Compound: Cc1c(C(=O)NC2(C(F)F)CC2)cc(Nc2nc(-c3cnc4c(c3)N([C@H]3C[C@@](C)(N5CCC(F)CC5)C3)C(=O)C4(C)C)cc3ncn(C(C)C)c23)c(F)c1F [Example 197, N-(1-(Difluoromethyl)cyclopropyl)-3,4-difluoro-5-((6-(1-((1s,3s)-3-(4-fluoropiperidin-1-yl)-3-methylcyclobutyl)-3,3-dimethyl-2-oxo-2,3-dihydro-1H-pyrrolo[3,2-b]pyridin-6-yl)-3-isopropyl-3H-imidazo[4,5-c]pyridin-4-yl)amino)-2-methylbenzamide]
- IC50 [1]: 0.1 nM

Compound: Cc1ccc(Nc2nc(-c3ccc4c(c3)N([C@H]3C[C@@H](N5CCCCC5)C3)C(=O)C4(C)C)cc3ncn(C(C)C)c23)cc1C(=O)NCCC(F)F [Example 25]
- IC50 [1]: 0.07 nM

Compound: CC(C)n1cnc2cc(-c3cnc4c(c3)N([C@H]3C[C@@](C)(N5CCCC6(CC6)C5)C3)C(=O)C4(C)C)nc(Nc3cc(C(=O)NCC(F)F)c(Cl)c(F)c3F)c21 [Example 282, 2-chloro-N-(2,2-difluoroethyl)-5-((6-(3,3-dimethyl-1-((1s,3s)-3-methyl-3-(5-azaspiro[2.5]octan-5-yl)cyclobutyl)-2-oxo-2,3-dihydro-1H-pyrrolo[3,2-b]pyridin-6-yl)-3-isopropyl-3H-imidazo[4,5-c]pyridin-4-yl)amino)-3,4-difluorobenzamide]
- IC50 [2]: 0.1 nM

Compound: CNC(=O)c1cc(Oc2nc(-c3ccc4c(c3)N([C@H]3C[C@@H](N5CCC(C)(C)C5)C3)C(=O)C43CCN(C(C)=O)CC3)cc3ncn(C(C)C)c23)ccc1C [Example 181]
- IC50 [1]: 0.2 nM

Compound: CCNC(=O)c1cc(Nc2nc(-c3cc4c(nc3F)C(C)(C)C(=O)N4[C@H]3C[C@@](C)(N4CCC5CC5C4)C3)cc3ncn(C(C)C)c23)c(F)c(F)c1C (some centres unmarked) [Example 255, 5-((6-(1-((1s,3s)-3-(3-azabicyclo[4.1.0]heptan-3-yl)-3-methylcyclobutyl)-5-fluoro-3,3-dimethyl-2-oxo-2,3-dihydro-1H-pyrrolo[3,2-b]pyridin-6-yl)-3-isopropyl-3H-imidazo[4,5-c]pyridin-4-yl)amino)-N-ethyl-3,4-difluoro-2-methylbenzamide]
- IC50 [1]: 0.1 nM

Compound: CNC(=O)c1cc(Nc2nc(-c3ccc4c(c3)N(C3CC(N5CCC[C@H](C(F)F)C5)C3)C(=O)C4(C)C)cc3ncn(C(C)C)c23)ccc1C (some centres unmarked) [Example 105B, 5-((6-(1-((1s,3s)-3-(3-(difluoromethyl)piperidin-1-yl)cyclobutyl)-3,3-dimethyl-2-oxoindolin-6-yl)-3-isopropyl-3H-imidazo[4,5-c]pyridin-4-yl)amino)-N,2-dimethylbenzamide]
- IC50 [1]: 0.09 nM

Compound: Cc1c(F)c(Nc2nc(-c3cnc4c(c3)N([C@H]3C[C@@](C)(N5CCCCC5)C3)C(=O)C4(C)C)cc3ncn(C(C)C)c23)cc(C(=O)NC2(C(F)F)CC2)c1Cl [Example 264, 2-chloro-N-(1-(difluoromethyl)cyclopropyl)-5-((6-(3,3-dimethyl-1-((1s,3s)-3-methyl-3-(piperidin-1-yl)cyclobutyl)-2-oxo-2,3-dihydro-1H-pyrrolo[3,2-b]pyridin-6-yl)-3-isopropyl-3H-imidazo[4,5-c]pyridin-4-yl)amino)-4-fluoro-3-methylbenzamide]
- IC50 [1]: 0.2 nM

Compound: Cc1ccc(Nc2nc(-c3ccc4c(c3)N([C@H]3C[C@@H](N5CCCCC5)C3)C(=O)C4(C)C)cc3ncn(C(C)C)c23)cc1C(=O)N[C@H](C)C(F)F [Example 21B, N-(1,1-difluoropropan-2-yl)-5-((6-(3,3-dimethyl-2-oxo-1-((1s,3s)-3-(piperidin-1-yl)cyclobutyl)indolin-6-yl)-3-isopropyl-3H-imidazo[4,5-c]pyridin-4-yl)amino)-2-methylbenzamide]
- IC50 [1]: 0.07 nM
